Legend:
PI3Kβ = PI3Kβ (Homo sapiens (Human), UniProt P42338); experiment: PI3K Enzyme Assay A2 ([γ-33P]ATP filter plate), PI3Kβ; format: biochemical; details: Assay A2, 1000 μM ATP
Procedure: Materials: Lipid kinase substrate, phosphoinositol-4,5-bisphosphate (PIP2), was purchased from Echelon Biosciences (Salt Lake City, Utah). PI3K isoforms α, β, δ and γ were purchased from Millipore (Bedford, Mass.). ATP, MgCh, DTT, EDTA, MOPS and CHAPS were purchased from Sigma-Aldrich (St. Louis, Mo.). The kinase reaction was conducted in clear-bottom 96-well plate from Thermo Fisher Scientific in a final volume of 24 μL. Inhibitors were first diluted serially in DMSO and added to the plate wells before the addition of other reaction components. The final concentration of DMSO in the assay was 0.5%. The PI3K assays were carried out at room temperature in 20 mM MOPS, pH 6.7, 10 mM MgCl2, 5 mM DTT and CHAPS 0.03%. The reaction mixture was prepared containing 50 μM PIP2, kinase and varying concentration of inhibitors. Reactions were initiated by the addition of ATP containing 2.2 μCi [γ-^33P]ATP to a final concentration of 1000 μM. […] Reactions were incubated for 180 min and terminated by the addition of 100 μL of 1 M potassium phosphate pH 8.0, 30 mM EDTA quench buffer. A 100 μL aliquot of the reaction solution was then transferred to 96-well Millipore MultiScreen IP 0.45 μm PVDF filter plate (The filter plate was prewetted with 200 μL 100% ethanol, distilled water, and 1 M potassium phosphate pH 8.0, respectively). The filter plate was aspirated on a Millipore Manifold under vacuum and washed with 18×200 μL wash buffer containing 1 M potassium phosphate pH 8.0 and 1 mM ATP. After drying by aspiration and blotting, the plate was air dried in an incubator at 37° C. overnight. Packard TopCount adapter (Millipore) was then attached to the plate followed with addition of 120 μL Microscint 20 scintillation cocktail (Perkin Elmer) in each well. After the plate sealing, the radioactivity of the product was determined by scintillation counting on Topcount (Perkin-Elmer). IC50 determination was performed by fitting the curve of percent control activity versus the log of the inhibitor concentration using the GraphPad Prism 3.0 software. […] See Table 1 for data related to compounds of the invention.

PI3Kδ (p110δ/p85α) = PI3Kδ (p110δ/p85α) (Homo sapiens (Human), UniProt O00329); experiment: PI3Kδ Scintillation Proximity Assay (Assay A3); format: biochemical; details: column b, Assay A3 (SPA), 20 μM ATP
PI3Kδ (p110δ/p85α), sequence (O00329 whole entry, species assumed): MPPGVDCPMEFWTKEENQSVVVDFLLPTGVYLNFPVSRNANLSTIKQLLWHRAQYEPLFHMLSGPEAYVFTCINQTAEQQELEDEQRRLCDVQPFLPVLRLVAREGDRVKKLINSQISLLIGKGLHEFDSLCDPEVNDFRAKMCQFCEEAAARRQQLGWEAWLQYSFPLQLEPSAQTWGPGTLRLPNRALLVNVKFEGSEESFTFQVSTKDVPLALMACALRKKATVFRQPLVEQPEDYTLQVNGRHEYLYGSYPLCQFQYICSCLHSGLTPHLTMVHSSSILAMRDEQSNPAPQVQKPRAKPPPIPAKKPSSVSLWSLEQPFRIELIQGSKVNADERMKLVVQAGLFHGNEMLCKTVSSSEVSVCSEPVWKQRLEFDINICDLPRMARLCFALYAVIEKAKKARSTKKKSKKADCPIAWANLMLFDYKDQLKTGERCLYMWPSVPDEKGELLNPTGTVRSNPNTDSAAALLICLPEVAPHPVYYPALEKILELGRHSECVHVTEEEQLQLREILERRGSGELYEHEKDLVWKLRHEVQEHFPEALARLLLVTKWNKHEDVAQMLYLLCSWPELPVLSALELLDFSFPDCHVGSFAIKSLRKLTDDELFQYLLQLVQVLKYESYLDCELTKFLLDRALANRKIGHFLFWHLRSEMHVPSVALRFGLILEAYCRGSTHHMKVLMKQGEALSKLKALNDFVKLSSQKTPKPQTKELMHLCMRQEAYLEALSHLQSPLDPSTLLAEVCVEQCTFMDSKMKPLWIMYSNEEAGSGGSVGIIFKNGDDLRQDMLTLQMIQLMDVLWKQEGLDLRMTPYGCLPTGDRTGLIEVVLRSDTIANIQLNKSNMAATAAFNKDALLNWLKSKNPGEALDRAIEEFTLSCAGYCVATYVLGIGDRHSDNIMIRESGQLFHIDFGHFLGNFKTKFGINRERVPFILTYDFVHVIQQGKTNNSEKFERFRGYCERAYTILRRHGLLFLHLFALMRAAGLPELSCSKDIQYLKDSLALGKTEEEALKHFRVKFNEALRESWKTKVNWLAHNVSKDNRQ
PI3Kδ (p110δ/p85α), sequence (P27986 whole entry partner, species assumed): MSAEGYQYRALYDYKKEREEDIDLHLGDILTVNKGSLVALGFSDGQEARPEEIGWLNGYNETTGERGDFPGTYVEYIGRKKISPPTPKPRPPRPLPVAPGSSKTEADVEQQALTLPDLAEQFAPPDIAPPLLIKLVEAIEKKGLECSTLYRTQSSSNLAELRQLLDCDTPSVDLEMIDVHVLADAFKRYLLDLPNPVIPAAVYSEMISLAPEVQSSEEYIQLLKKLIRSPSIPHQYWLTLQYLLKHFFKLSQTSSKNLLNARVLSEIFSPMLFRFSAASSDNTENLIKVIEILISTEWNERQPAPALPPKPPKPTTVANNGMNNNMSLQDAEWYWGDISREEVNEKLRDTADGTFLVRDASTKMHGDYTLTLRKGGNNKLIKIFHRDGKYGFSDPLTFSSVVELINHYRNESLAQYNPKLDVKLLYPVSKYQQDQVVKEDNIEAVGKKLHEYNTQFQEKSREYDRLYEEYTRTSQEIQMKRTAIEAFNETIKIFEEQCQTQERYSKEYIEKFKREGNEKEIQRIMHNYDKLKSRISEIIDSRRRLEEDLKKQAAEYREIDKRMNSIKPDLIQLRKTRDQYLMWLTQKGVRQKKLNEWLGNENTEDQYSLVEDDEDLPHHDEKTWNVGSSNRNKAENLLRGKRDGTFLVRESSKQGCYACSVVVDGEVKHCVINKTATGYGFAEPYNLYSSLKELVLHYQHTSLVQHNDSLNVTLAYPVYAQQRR
Summary of the method: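 Radiometric SPA: 33P-labelled […] bound to WGA beads after EDTA/ATP quench, counted by scintillation, fitted against log inhibitor for IC50. Reaction: 4 nM PI3Kδ (p110δ/p85α), 20 μM ATP, 20 μM PIP2, pH 6.7 MOPS buffer with MgCl2, DTT, CHAPS, 0.5% DMSO, room temperature, 210 min.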

PI3Kβ, sequence (P42338 whole entry, species assumed, canonical isoform): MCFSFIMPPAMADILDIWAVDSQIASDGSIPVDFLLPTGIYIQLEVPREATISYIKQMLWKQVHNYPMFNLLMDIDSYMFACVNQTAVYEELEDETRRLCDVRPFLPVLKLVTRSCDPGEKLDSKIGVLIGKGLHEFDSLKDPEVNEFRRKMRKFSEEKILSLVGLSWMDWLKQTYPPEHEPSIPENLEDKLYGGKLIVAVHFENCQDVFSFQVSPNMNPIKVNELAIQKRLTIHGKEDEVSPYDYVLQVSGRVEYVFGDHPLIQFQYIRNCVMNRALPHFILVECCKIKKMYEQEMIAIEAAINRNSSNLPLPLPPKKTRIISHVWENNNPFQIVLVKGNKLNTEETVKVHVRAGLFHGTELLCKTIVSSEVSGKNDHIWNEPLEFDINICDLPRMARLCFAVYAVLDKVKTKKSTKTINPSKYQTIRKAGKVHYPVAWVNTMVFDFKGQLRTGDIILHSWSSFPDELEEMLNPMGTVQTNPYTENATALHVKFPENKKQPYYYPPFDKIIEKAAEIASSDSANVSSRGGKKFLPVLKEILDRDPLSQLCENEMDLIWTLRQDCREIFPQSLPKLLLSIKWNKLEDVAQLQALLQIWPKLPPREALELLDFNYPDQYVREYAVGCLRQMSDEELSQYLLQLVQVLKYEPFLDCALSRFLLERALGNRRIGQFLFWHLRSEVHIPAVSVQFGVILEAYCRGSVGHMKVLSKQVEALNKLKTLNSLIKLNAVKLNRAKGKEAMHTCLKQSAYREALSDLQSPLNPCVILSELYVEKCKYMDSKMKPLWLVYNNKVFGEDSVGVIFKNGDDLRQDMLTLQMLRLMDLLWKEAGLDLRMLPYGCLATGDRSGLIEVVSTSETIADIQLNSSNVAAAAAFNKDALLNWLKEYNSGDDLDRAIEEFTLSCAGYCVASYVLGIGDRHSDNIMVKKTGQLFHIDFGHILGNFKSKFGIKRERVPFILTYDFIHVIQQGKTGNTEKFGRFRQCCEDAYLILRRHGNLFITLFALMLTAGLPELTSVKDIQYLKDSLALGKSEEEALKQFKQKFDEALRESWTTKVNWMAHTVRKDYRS
PI3Kβ, sequence (P27986 whole entry partner, species assumed, canonical isoform): as the sequence (P27986 whole entry partner, species assumed) above

Structure (SMILES): Cc1csc2nc(C(C)Nc3nc(N)nc4[nH]cnc34)c(-c3cccc(F)c3)c(=O)n12 (stereo not drawn) [Example 11, 7-{1-[(2-amino-9H-purin-6-yl)amino]ethyl}-6-(3-fluorophenyl)-3-methyl-5H-[1,3]thiazolo[3,2-a]pyrimidin-5-one]
- IC50 (PI3Kβ): > 500 nM
- IC50 (PI3Kδ (p110δ/p85α)): < 50 nM

Structure (SMILES): Cc1csc2nc(C(C)Nc3nc(N)nc4[nH]cnc34)c(-c3ccccc3)c(=O)n12 (stereo not drawn) [Example 9, 7-{1-[(2-amino-9H-purin-6-yl)amino]ethyl}-3-methyl-6-phenyl-5H-[1,3]thiazolo[3,2-a]pyrimidin-5-one]
- IC50 (PI3Kβ): > 500 nM
- IC50 (PI3Kδ (p110δ/p85α)): < 50 nM

Structure (SMILES): Cc1csc2nc(C(C)Nc3nc(N)nc4[nH]cnc34)c(-c3cc(F)cc(F)c3)c(=O)n12 (stereo not drawn) [Example 13, 7-{1-[(2-amino-9H-purin-6-yl)amino]ethyl}-6-(3,5-difluorophenyl)-3-methyl-5H-[1,3]thiazolo[3,2-a]pyrimidin-5-one]
- IC50 (PI3Kβ): > 500 nM
- IC50 (PI3Kδ (p110δ/p85α)): < 50 nM

Reference: US9975907B2, “Pyrimidinones as PI3K inhibitors” (Incyte Corporation, priority 2009, dated 2018)
